Data taken from patent US10959968B2, “Methods for treating c-Met-dependent cancers” (Board of Supervisors of Louisiana State University and …, priority 2016, dated 2021).

Legend:
[1] = test system: T-47D breast cancer cells; assay: HGF-stimulated growth of Met-independent cells, MTT assay; assay type: cell-based, human; details: similar treatment doses; 72 h
Method: FIG. 3. (A) Effect of HVS treatment on HGF-stimulated growth of Met-dependent MDA-MB-231, MDA-MB-468, MCF-7. and BT-474 breast cancer cells after 72 h treatment period, compared to DMSO as vehicle control. Viable cell count was determined using MTT assay. Vertical bars indicate the mean cell count±SEM of N=3 in each treatment group; (−)-oleocanthal was used as a positive control at 20 μM. (B) Effect of HVS treatment on HGF-stimulated growth of Met-independent T-47D breast cancer cells after 72 h treatment period. Viable cell count was determined using MTT assay. Vertical bars indicate the mean cell count±SEM of N=3 in each treatment group. (C) Cytotoxic effects of HVS on the highly metastatic MDA-MB-231 breast cancer cells at two different concentrations (30 and 60 μM) using LDH cytotoxicity assay. Triton X-100 was used as a positive control to cause the breakdown of all the cells and induce the total possible LDH release. (D) Effects of HVS treatment on the viability of non-tumorigenic human MCF10A mammary epithelial cells after a 24 h treatment period, compared to DMSO as vehicle control. (E) As in panel (A) but without HGF. […] Viable cell count was determined using MTT assay. Vertical bars indicate the mean cell count±SEM of N=3 in each treatment group; doxorubicin was used as a positive control at 10 μM dose. *P<0.05 as compared with vehicle treated control.
[…]. […]

[2] = test system: MDA-MB-231 breast cancer cells; assay: Western blot of c-Met downstream mitogenic and FAK/Brk/paxillin/Rac1 signaling; assay type: cell-based, human
Method: FIG. 5. Effects of HVS treatment on c-Met downstream mitogenic and FAK/Brk/paxillin/Rac1 signaling pathways in human MDA-MB-231 breast cancer cells after a treatment period of 72 h. (A) Western Blot analysis showing HVS treatment effects on c-Met downstream mitogenic signaling molecules, Akt and MAPK, using different treatment doses, compared to the vehicle-treated control group. (B) Western Blot analysis showing HVS treatment effects on FAK/Brk/Paxillin/Rac1 signaling pathway using different treatment doses, compared to the vehicle-treated control group. The visualization of β-tubulin was used as a loading control. Representative Western Blots from each experiment are shown, N=3.
On the other hand, HVS had little or no effects on the total levels of FAK, Brk, paxillin, and Rac1 in treated cells. Exposure to antiproliferative concentrations of 8 blocked HGF-induced phosphorylation and activation of Akt and MAPK in MDA-MB-231 mammary cancer cells (FIG. 5). Activation of c-Met prevents apoptosis and maintains cancer cell survival through activation of PI3K and subsequent Akt-NFκB activation.

[3] = test system: c-Met phosphorylation in MDA-MB-231, MCF-7, and BT-474 mammary tumor cells; assay: Western blot of HGF-induced c-Met activation in breast cancer cells; assay type: cell-based, human
Method: FIG. 4. A) Effect of HVS treatment on HGF-induced c-Met activation in human breast cancer cells using Western Blot analysis. […] The visualization of β-tubulin was used as a loading control. (B) Effect of HVS on HGF-induced c-Met activation and its downstream mitogenic signaling in DU145 human prostate cancer cells, as compared to vehicle-treated control group, using Western Blot analysis. Cells were pre-treated for 30 minutes with either HVS at 0.1, 0.3, 1, and 5 μM or (−)-oleocanthal at 5, 10, and 20 μM doses in serum-free 0.4-media. 33 ng/mL HGF was then added for 30 minutes. Whole cell lysates were collected and assayed by Western Blot. The visualization of α-tubulin was used as a loading control. Representative Western Blots from each experiment are shown, N=3.
Activation of c-Met prevents apoptosis and maintains cancer cell survival through activation of PI3K and subsequent Akt-NFκB activation.

[4] = test system: MDA-MB-231 human breast cancer cells; assay: Cultrex BME cell invasion assay, HGF-induced; assay type: cell-based; details: 24 h treatment
Method: FIG. 6. (A) Effect of HVS on HGF-induced migration of the highly metastatic MDA-MB-231 human breast cancer cells in wound healing assay. […] Vertical bars indicate the percentage of wound closure at 24 h after wounding, calculated relative to the wound distance at zero time±SEM of N=6 in each treatment group. SU11274 and (−)-oleocanthal were used as positive controls at 10 μM. Right panel represents photomicrographs of wound healing assay showing HVS treatment at three different concentrations (1.25, 2.5, and 5 μM) blocked the migration of MDA-MB-231 cells in response to HGF stimulation, as compared to DMSO as a vehicle control. (B) Effect of HVS on HGF-induced cell invasion of the highly aggressive MDA-MB-231 human breast cancer cells using Cultrex® BME cell invasion assay. The cells were treated with different concentrations of HVS for 24 h. Vertical bars indicate the percentage of cells invading the basement membrane at the end of treatment period±SEM of N=3 in each treatment group. (−)-Oleocanthal was used as a positive control at 20 μM dose.*P<0.05 as compared with vehicle-treated control. (C) Effect of HVS on HGF-induced scattering of the DU145 human prostate cancer cells in 2D monolayer cultures, compared to DMSO as vehicle control. Cells were treated with indicated concentrations of HVS for 30 minutes in serum-free media. […]

COc1cc(CCOC(=O)/C=C/c2cc(OC)c(O)c(OC)c2)ccc1O [Compound 8, (E)-4-hydroxy-3-methoxyph-ethyl 3-(4-hydroxy-3,5-dimethoxyphenyl) acrylate]
effect on T47-D cells which lack c-Met [1]: no discernable effects
FAK, Brk, paxillin and Rac1 phosphorylation (activation) ([2]; 72-h treatment): dose-dependently suppressed
HGF-induced phosphorylation and activation of Akt and MAPK ([2]; antiproliferative concentrations): blocked
HGF-induced c-Met phosphorylation ([3]; 72 h treatment): significant inhibition
total c-Met levels ([3]; at the tested concentrations): did not affect
HGF-induced invasion [4]: appears to inhibit
